Like-named read-outs stand apart in the source and are kept apart here.
What was measured:
[1] = system: MHC (HLA-I and HLA-II alleles); design: key: +: previously assayed and confirmed as HLA-A02:01 binders in ViPR; details: cited from earlier work
[2] = system: CD8+ T cells of HLA-A02:01-positive human donors; assay type: cell-based
[3] = system: peripheral CD8+ T cells; design: species or system human; details: in vivo
[4] = PBMCs from three HLA-A02:01-positive human donors, pMHC multimer positive CD8+ T cells

MHC (HLA-I and HLA-II alleles), sequence (P61769 21-119): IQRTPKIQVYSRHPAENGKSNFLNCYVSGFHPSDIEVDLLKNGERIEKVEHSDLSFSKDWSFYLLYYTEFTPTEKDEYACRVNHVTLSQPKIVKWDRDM

ILLNKHIDA
Confirmed in VIPR [1]: +

YLGTGPEAGL
No. Donors with pMHC specific T tells [2]: 2

LLLDRLNQL
No. Donors with pMHC specific T tells [2, 4]: 1 | Confirmed in VIPR [1]: +

QYIKWPWYI
multimer+ of CD8+ [3]: 1.27

KLNDLCFTNV
No. Donors with pMHC specific T tells [2, 4]: 2

FGDDTVIEV
No. Donors with pMHC specific T tells [2, 4]: 3

KLDDKDPNF
No. Donors with pMHC specific T tells [2]: 2

FLLPSLATV
No. Donors with pMHC specific T tells [2, 4]: 2

GLTVLPPLL
No. Donors with pMHC specific T tells [2, 4]: 1

QPTESIVRF
multimer+ of CD8+ [3]: 0.17

NLNESLIDL
Confirmed in VIPR [1]: +

FLFLTWICL
No. Donors with pMHC specific T tells [2, 4]: 2

YLQPRTFLL
multimer+ of CD8+ [3]: 3.09
